According to ChEMBL document CHEMBL1132113, “Inhibitors of efflux pumps in Pseudomonas aeruginosa potentiate the activity of the fluoroquinolone antibacterial levofloxacin” (1999):
≈ marks a conversion by molar mass, not a printed value. Square brackets hold non-standard residues; d marks the D form. Peptide text beside a SMILES is read from it. * marks the point of attachment. Orn = NCCC[C@H](N)C(=O)O; βNA = c1ccc2cc(N*)ccc2c1

Experiments:
[1] = system: Pseudomonas aeruginosa; assay: Minimum Inhibitory concentration required to inhibit the growth of Pseudomonas aeruginosa (strain PAM 1032).; format: functional
[2] = system: Pseudomonas aeruginosa; assay: (§1) Volume of synergy by MacSynergy II 3-D analysis.; format: functional
[3] = system: Pseudomonas aeruginosa; assay: Minimum Inhibitory concentration required to reduce the MIC of levofloxacin by 8-fold against PAM 1032; format: functional
[4] = system: Pseudomonas aeruginosa; assay: Minimum inhibitory concentration of Levofloxacin in presence at a concentration of 5 ug/mL against PAM 1032; format: functional
[5] = system: Pseudomonas aeruginosa; assay: Minimum inhibitory concentration of Levofloxacin in presence at a concentration of 5 ug/mL against PAM 1034; format: functional
[6] = system: Pseudomonas aeruginosa; assay: Minimum inhibitory concentration of Levofloxacin in presence at a concentration of 50 ug/mL against PAM 1033; format: functional
[7] = system: Pseudomonas aeruginosa; assay: Minimum inhibitory concentration of Levofloxacin in presence at a concentration of 0 ug/mL against PAM 1032; format: functional
[8] = system: Pseudomonas aeruginosa; assay: Minimum inhibitory concentration of Levofloxacin in presence at a concentration of 0 ug/mL against PAM 1033; format: functional
[9] = system: Pseudomonas aeruginosa; assay: Minimum inhibitory concentration of Levofloxacin in presence at a concentration of 0 ug/mL against PAM 1034; format: functional
[10] = system: Pseudomonas aeruginosa; assay: Minimum inhibitory concentration of Levofloxacin in presence at a concentration of 1.25 ug/mL against PAM 1032; format: functional
[11] = system: Pseudomonas aeruginosa; assay: Minimum inhibitory concentration of Levofloxacin in presence at a concentration of 1.25 ug/mL against PAM 1033; format: functional
[12] = system: Pseudomonas aeruginosa; assay: Minimum inhibitory concentration of Levofloxacin in presence at a concentration of 1.25 ug/mL against PAM 1034; format: functional
[13] = system: Pseudomonas aeruginosa; assay: Minimum inhibitory concentration of Levofloxacin in presence at a concentration of 10 ug/mL against PAM 1032; format: functional
[14] = system: Pseudomonas aeruginosa; assay: Minimum inhibitory concentration of Levofloxacin in presence at a concentration of 10 ug/mL against PAM 1033; format: functional
[15] = system: Pseudomonas aeruginosa; assay: Minimum inhibitory concentration of Levofloxacin in presence at a concentration of 10 ug/mL against PAM 1034; format: functional
[16] = system: Pseudomonas aeruginosa; assay: Minimum inhibitory concentration of Levofloxacin in presence at a concentration of 2.5 ug/mL against PAM 1032; format: functional
[17] = system: Pseudomonas aeruginosa; assay: Minimum inhibitory concentration of Levofloxacin in presence at a concentration of 2.5 ug/mL against PAM 1034; format: functional
[18] = system: Pseudomonas aeruginosa; assay: Minimum inhibitory concentration of Levofloxacin in presence at a concentration of 2.50 ug/mL against PAM 1033; format: functional
[19] = system: Pseudomonas aeruginosa; assay: Minimum inhibitory concentration of Levofloxacin in presence at a concentration of 20 ug/mL against PAM 1032; format: functional
[20] = system: Pseudomonas aeruginosa; assay: Minimum inhibitory concentration of Levofloxacin in presence at a concentration of 20 ug/mL against PAM 1033; format: functional
[21] = system: Pseudomonas aeruginosa; assay: Minimum inhibitory concentration of Levofloxacin in presence at a concentration of 20 ug/mL against PAM 1034; format: functional
[22] = system: Pseudomonas aeruginosa; assay: Minimum inhibitory concentration of Levofloxacin in presence at a concentration of 40 ug/mL against PAM 1032; format: functional
[23] = system: Pseudomonas aeruginosa; assay: Minimum inhibitory concentration of Levofloxacin in presence at a concentration of 40 ug/mL against PAM 1033; format: functional
[24] = system: Pseudomonas aeruginosa; assay: Minimum inhibitory concentration of Levofloxacin in presence at a concentration of 40 ug/mL against PAM 1034; format: functional
[25] = system: Pseudomonas aeruginosa; assay: Minimum Inhibitory concentration required to inhibit the growth of Pseudomonas aeruginosa (strain PAM 1032); format: functional
[26] = system: Pseudomonas aeruginosa; assay: Minimum Inhibitory concentration required to reduce the MIC of levofloxacin by 8-fold against PAM 1033; format: functional
[27] = system: Pseudomonas aeruginosa; assay: Minimum Inhibitory concentration required to reduce the MIC of levofloxacin by 8-fold against PAM 1034; format: functional
[28] = Volume of synergy by MacSynergy II 3-D analysis
[29] = as §1
[30] = system: Pseudomonas aeruginosa; assay: Minimum inhibitory concentration of Levofloxacin in presence at a concentration of 10 ug/mL against PAM 1033.; format: functional
[31] = system: Pseudomonas aeruginosa; assay: Minimum inhibitory concentration of Levofloxacin in presence at a concentration of 2.50 ug/mL against PAM 1033.; format: functional
[32] = system: Pseudomonas aeruginosa; assay: Minimum inhibitory concentration of Levofloxacin in presence at a concentration of 20 ug/mL against PAM 1033.; format: functional
[33] = system: Pseudomonas aeruginosa; assay: Minimum inhibitory concentration of Levofloxacin in presence at a concentration of 40 ug/mL against PAM 1033.; format: functional
[34] = system: Pseudomonas aeruginosa; assay: Minimum inhibitory concentration of Levofloxacin in presence at a concentration of 50 ug/mL against PAM 1033.; format: functional
[35] = system: Pseudomonas aeruginosa; assay: Minimum Inhibitory concentration required to reduce the MIC of levofloxacin by 8-fold against PAM 1033.; format: functional
[36] = system: Pseudomonas aeruginosa; assay: Minimum inhibitory concentration of Levofloxacin in presence at a concentration of 0 ug/mL against PAM 1034.; format: functional
[37] = system: Pseudomonas aeruginosa; assay: Minimum inhibitory concentration of Levofloxacin in presence at a concentration of 1.25 ug/mL against PAM 1034.; format: functional
[38] = system: Pseudomonas aeruginosa; assay: Minimum inhibitory concentration of Levofloxacin in presence at a concentration of 10 ug/mL against PAM 1034.; format: functional
[39] = system: Pseudomonas aeruginosa; assay: Minimum inhibitory concentration of Levofloxacin in presence at a concentration of 2.5 ug/mL against PAM 1034.; format: functional
[40] = system: Pseudomonas aeruginosa; assay: Minimum inhibitory concentration of Levofloxacin in presence at a concentration of 20 ug/mL against PAM 1034.; format: functional
[41] = system: Pseudomonas aeruginosa; assay: Minimum inhibitory concentration of Levofloxacin in presence at a concentration of 5 ug/mL against PAM 1034.; format: functional
[42] = system: Pseudomonas aeruginosa; assay: Minimum Inhibitory concentration required to reduce the MIC of levofloxacin by 8-fold against PAM 1034.; format: functional
[43] = system: Pseudomonas aeruginosa; assay: Minimum inhibitory concentration of Levofloxacin in presence at a concentration of 40 ug/mL against PAM 1034.; format: functional

Q: For `NCCCC[C@H](NC(=O)[C@@H](N)Cc1ccccc1)C(=O)Nc1ccc2ccccc2c1`, which MIC [1] is on record?
A: > 512 µg/mL

Q: What about the VOLSYN [2] of the same molecule?
A: 1390

Q: What about the MPC8 [3] of the same molecule?
A: 10 µg/mL

Q: For `NCCC[C@H](N)C(=O)Nc1ccc2ccccc2c1`, which MIC [1] is on record?
A: > 512 µg/mL

Q: What about the VOLSYN [2] of the same molecule?
A: 183

Q: And the MPC8 [3]?
A: >40 µg/mL

Q: Which results are given for `CN(C(=O)[C@@H](N)Cc1ccccc1)[C@@H](CCCN)C(=O)Nc1ccc2ccccc2c1`?
A: MIC [1]: 256 µg/mL (≈ 612 µM); VOLSYN [2]: 2825; MPC8 [3]: 5 µg/mL

Q: Which results are given for `NCCC[C@H](NC(=O)[C@@H](N)CCc1ccccc1)C(=O)Nc1cnc2ccccc2c1`?
A: MIC [4]: 0.125 µg/mL (≈ 0.298 µM); MIC [5]: 0.25 µg/mL (≈ 0.596 µM); MIC [6]: 0.125 µg/mL (≈ 0.298 µM); MIC [7]: 2 µg/mL (≈ 4.77 µM); MIC [8]: 4 µg/mL (≈ 9.53 µM); MIC [9]: 4 µg/mL (≈ 9.53 µM); MIC [10]: 1 µg/mL (≈ 2.38 µM); MIC [11]: 2 µg/mL (≈ 4.77 µM); MIC [12]: 4 µg/mL (≈ 9.53 µM); MIC [13]: 0.06 µg/mL (≈ 0.143 µM); MIC [14]: 0.06 µg/mL (≈ 0.143 µM); MIC [15]: 0.125 µg/mL (≈ 0.298 µM); MIC [16]: 0.5 µg/mL (≈ 1.19 µM); MIC [17]: 1 µg/mL (≈ 2.38 µM); MIC [18]: 0.5 µg/mL (≈ 1.19 µM); MIC [19]: 0.06 µg/mL (≈ 0.143 µM); MIC [20]: 0.06 µg/mL (≈ 0.143 µM); MIC [21]: 0.125 µg/mL (≈ 0.298 µM); MIC [22]: 0.06 µg/mL (≈ 0.143 µM); MIC [23]: 0.06 µg/mL (≈ 0.143 µM); MIC [24]: 0.125 µg/mL (≈ 0.298 µM); MIC [25]: > 512 µg/mL; MPC8 [3]: 5 µg/mL; MPC8 [26]: 2.5 µg/mL; MPC8 [27]: 5 µg/mL; VOLSYN [28]: 2590

Q: For `NCCC[C@H](NC(=O)[C@@H](N)Cc1ccc(F)cc1)C(=O)Nc1ccc2ccccc2c1`, which MIC [1] is on record?
A: 512 µg/mL (≈ 1210 µM)

Q: What about the VOLSYN [2] of the same molecule?
A: 2343

Q: And the MPC8 [3]?
A: 5 µg/mL

Q: With `NCCC[C@H](NC(=O)[C@@H](N)CCc1ccccc1)C(=O)Nc1ccccc1` as the molecule, how does the MIC [25] read?
A: > 512 µg/mL

Q: What about the MPC8 [3] of the same molecule?
A: >40 µg/mL

Q: What about the VOLSYN [29] of the same molecule?
A: 906

Q: Which MIC [1] does the source give for `C[C@H](N)C(=O)N[C@@H](CCCN)C(=O)Nc1ccc2ccccc2c1` (H-Ala-[Orn]-βNA) here?
A: > 512 µg/mL

Q: And the VOLSYN [2]?
A: 486

Q: What about the MPC8 [3] of the same molecule?
A: 40 µg/mL

Q: Which MIC [1] does the source give for `NCCC[C@H](NC(=O)[C@@H](N)CCc1ccccc1)C(=O)Nc1ccc2ccccc2c1` here?
A: 128 µg/mL (≈ 306 µM)

Q: What about the VOLSYN [2] of the same molecule?
A: 2612

Q: What about the MPC8 [3] of the same molecule?
A: 2.5 µg/mL

Q: With `NCCC[C@H](NC(=O)[C@@H](N)CCc1ccccc1)C(=O)Nc1ccc2c(c1)CCC2` as the molecule, how does the MIC [25] read?
A: 256 µg/mL (≈ 627 µM)

Q: What about the MPC8 [3] of the same molecule?
A: 2.5 µg/mL

Q: And the VOLSYN [28]?
A: 2220

Q: For `N[C@@H](Cc1ccccc1)C(=O)N[C@@H](Cc1c[nH]cn1)C(=O)Nc1ccc2ccccc2c1` (H-Phe-His-βNA), which MIC [1] is on record?
A: > 512 µg/mL

Q: What about the VOLSYN [2] of the same molecule?
A: 463

Q: And the MPC8 [3]?
A: >40 µg/mL

Q: What does the source list for `NCCC[C@H](NC(=O)[C@@H](N)CCc1ccccc1)C(=O)Nc1ccc2ncccc2c1`?
A: MIC [25]: > 512 µg/mL; MPC8 [3]: 10 µg/mL; VOLSYN [29]: 2060

Q: For `NCCC[C@H](NC(=O)[C@@H](N)Cc1ccccc1)C(=O)Nc1ccc2ccccc2c1`, which MIC [1] is on record?
A: 512 µg/mL (≈ 1270 µM)

Q: And the VOLSYN [2]?
A: 1760

Q: What about the MPC8 [3] of the same molecule?
A: 5 µg/mL

Q: What does the source list for `N=C(N)NCCC[C@H](NC(=O)[C@@H](N)Cc1ccccc1)C(=O)Nc1ccc2ccccc2c1` [PABETAN] (H-Phe-Arg-βNA)?
A: MIC [30]: 0.125 µg/mL (≈ 0.28 µM); MIC [31]: 2 µg/mL (≈ 4.48 µM); MIC [32]: 0.125 µg/mL (≈ 0.28 µM); MIC [33]: 0.125 µg/mL (≈ 0.28 µM); MIC [34]: 0.5 µg/mL (≈ 1.12 µM); MPC8 [35]: 5 µg/mL; MIC [36]: 4 µg/mL (≈ 8.96 µM); MIC [37]: 4 µg/mL (≈ 8.96 µM); MIC [38]: 0.25 µg/mL (≈ 0.56 µM); MIC [39]: 4 µg/mL (≈ 8.96 µM); MIC [40]: 0.06 µg/mL (≈ 0.134 µM); MIC [41]: 1 µg/mL (≈ 2.24 µM); MPC8 [42]: 10 µg/mL; MIC [4]: 0.5 µg/mL (≈ 1.12 µM); MIC [7]: 2 µg/mL (≈ 4.48 µM); MIC [8]: 4 µg/mL (≈ 8.96 µM); MIC [10]: 2 µg/mL (≈ 4.48 µM); MIC [11]: 4 µg/mL (≈ 8.96 µM); MIC [13]: 0.125 µg/mL (≈ 0.28 µM); MIC [16]: 1 µg/mL (≈ 2.24 µM); MIC [19]: 0.06 µg/mL (≈ 0.134 µM); MIC [22]: 0.06 µg/mL (≈ 0.134 µM); MIC [25]: > 512 µg/mL; VOLSYN [2]: 1962; MPC8 [3]: 10 µg/mL; MIC [43]: 0.03 µg/mL (≈ 0.0672 µM)
